PMC7002245 (European journal of medicinal chemistry, 2019)
Like-named read-outs stand apart in the source and are kept apart here.

Key:
[1] = system: coxsackievirus B3 97927 I1207K I1092; type: cell-based
coxsackievirus B3 Nancy = type: cell-based; settings: HeLa cells, CPE inhibition, 48 h post infection; n/a = not active (max 100 μM)
rhinovirus B5 = type: cell-based; settings: HeLa cells, CPE inhibition, 72 h post infection; n/a = not active (max 100 μM)
E. coli PQ37 = assay: microbe, parasite or virus in culture; type: cell-based; settings: Escherichia coli
rhinovirus B14 = type: cell-based; settings: HeLa cells, CPE inhibition, 72 h post infection; n/a = not active (max 100 μM)
CYP3A4 = settings: human, hepatocytes
[2] = Pharmacokinetic study in mice after intragastric administration; type: in vivo

With `CCOC(=O)c1cc(CCCOc2ccc(-c3noc(C(F)(F)F)n3)cc2)on1` [6c, 3-(4-(3-(3-Carbethoxy-isoxazol-5-yl)propoxy)phenyl)-5-trifluoromethyl-1,2,4-oxadiazole] the “IC50 towards coxsackievirus B3 97927 I1207K I1092” value [1] was “inactive”, the “IC50 towards coxsackievirus B3 Nancy” value (coxsackievirus B3 Nancy) was “inactive” and the “IC50 towards rhinovirus B5” value (rhinovirus B5) was “inactive”.
Work on `CN(C)C(=O)c1cc(CCCOc2ccc(-c3noc(C(F)(F)F)n3)cc2C(F)(F)F)on1` [10k, 3-(3-Trifluoromethyl-4-(3-(3-N,N-dimethylcarbamoyl-isoxazol-5-yl)propoxy)phenyl)-5-trifluoromethyl-1,2,4-oxadiazole] yielded a zone of inhibition at 10000 µg/mL (E. coli PQ37) of 0 mm.
With `CNC(=O)c1cc(CCCOc2ccc(-c3noc(C(F)(F)F)n3)cc2C(F)(F)F)on1` [10m, 3-(3-Trifluoromethyl-4-(3-(3-methylcarbamoyl-isoxazol-5-yl)propoxy)phenyl)-5-trifluoromethyl-1,2,4-oxadiazole] the “IC50 towards coxsackievirus B3 97927 I1207K I1092” value [1] was “no activity”, the “IC50 towards rhinovirus B5” value (rhinovirus B5) was “did not totally inhibit” and the “IC50 towards rhinovirus B14” value (rhinovirus B14) was “did not totally inhibit”.
Molecule `Cc1cc(-c2noc(C(F)(F)F)n2)cc(C)c1OCCCc1cc(C(=O)N(C)C)no1` [10e, 3-(3,5-Dimethyl-4-(3-(3-N,N-dimethylcarbamoyl-isoxazol-5-yl)propoxy)phenyl)-5-trifluoromethyl-1,2,4-oxadiazole] has a zone of inhibition at 10000 µg/mL (E. coli PQ37) of 0 mm.
`CNC(=O)c1cc(CCCOc2c(C)cc(-c3noc(C(F)(F)F)n3)cc2C)on1` [10b, 3-(3,5-Dimethyl-4-(3-(3-methylcarbamoyl-isoxazol-5-yl)propoxy)phenyl)-5-trifluoromethyl-1,2,4-oxadiazole] gave a zone of inhibition at 10000 µg/mL (E. coli PQ37) of 0 mm.
For `CN(C)C(=O)c1cc(CCCOc2ccc(-c3noc(C(F)(F)F)n3)cc2[N+](=O)[O-])on1` [10i, 3-(3-Nitro-4-(3-(3-N,N-dimethylcarbamoyl-isoxazol-5-yl)propoxy)phenyl)-5-trifluoromethyl-1,2,4-oxadiazole], the zone of inhibition at 10000 µg/mL (E. coli PQ37) was 0 mm.
For `Cc1cc(CCCOc2c(C)cc(-c3noc(C(F)(F)F)n3)cc2C)on1` [P, pleconaril, reference compound], the “induction of CYP3A4, % of control” value (CYP3A4; 1 μM) was 13% and the “induction of CYP3A4, % of control” value (CYP3A4; 10 μM) was 30%.
For `Cc1cc(-c2noc(C(F)(F)F)n2)ccc1OCCCc1cc(C(=O)N(C)C)no1` [10g, 3-(3-Methyl-4-(3-(3-N,N-dimethylcarbamoyl-isoxazol-5-yl)propoxy)phenyl)-5-trifluoromethyl-1,2,4-oxadiazole], the bioavailability ([2]; 100 mg/kg intragastric) was “very high bioavailability”, the CL ([2]; 100 mg/kg single dose intragastric, CL = dose/AUC0-∞) was 0.66 h⁻¹ and the zone of inhibition at 10000 µg/mL (E. coli PQ37) was 0 mm. The “induction of CYP3A4 (fold)” value (CYP3A4; 1 μM) was 1.2 x, the “induction of CYP3A4, % of control” value (CYP3A4; 1 μM) was 3% and the “induction of CYP3A4 (fold)” value (CYP3A4; 10 μM) was 1.4 x. For the same molecule, the “induction of CYP3A4, % of control” value (CYP3A4; 10 μM) was 7%.
In the case of `COC(=O)c1cc(CCCOc2c(C)cc(-c3noc(C(F)(F)F)n3)cc2C)on1` [6a, 3-(3,5-Dimethyl-4-(3-(3-carbmethoxy-isoxazol-5-yl)propoxy)phenyl)-5-trifluoromethyl-1,2,4-oxadiazole], the “IC50 towards rhinovirus B5” value (rhinovirus B5) is reported as “no activity”.
